In patent US20100168112A1, “2-Substituted and 4-substituted aryl nitrone compounds” (RENOVIS, INC., priority 2004, published 2010):

Key:
[1] = DPPH free radical-scavenging/antioxidant assay; assay type: biochemical; conditions: 50 μM DPPH in 80% methanol; 24 h time point; read-out: EC50 (concentration at which a compound reduces by 50% the peak absorbance of DPPH at 520 nm)
Summary of the method: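 Compounds diluted 100-fold from DMSO stocks into 50 μM DPPH in 80% methanol; absorbance at 520 nm followed kinetically to steady state, with the 24 h reading used. EC50 interpolated from OD520 versus concentration; Trolox, BHA, PBN and S-PBN as positive controls, DMSO as vehicle.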

[2] = Pharmacokinetic evaluation following intravenous and oral administration in rats; assay type: in vivo; conditions: male, Sprague-Dawley; for Cmax / Tmax / bioavailability: 5 mg/kg; for Cmax: rat plasma; for Cmax / Tmax: oral gavage, 2 mg/mL at 2.5 mL/kg; for clearance / Vd / Tmax / bioavailability / half-life: plasma, rat; for clearance / Vd / half-life: 1 mg/kg; for clearance / Vd: intravenous administration, 1 mg/mL at 1.0 mL/kg; for clearance: read-out: CI (clearance) (converted); for Vd: read-out: Vd (volume of distribution); for bioavailability: po 2 mg/mL at 2.5 mL/kg vs iv 1 mg/mL at 1.0 mL/kg, dose-normalized, read-out: F (%) oral bioavailability; for half-life: intravenous, read-out: T1/2 elimination half life (converted)
Summary of the method: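 Male Sprague-Dawley rats, fasted, dosed iv (1 mg/mL formulation, 1.0 mL/kg, jugular or tail vein) or by oral gavage (2 mg/mL suspension, 2.5 mL/kg). Plasma sampled from 2 min to 480 min, some to 24 h, and quantified by LC-MS/MS (MRM). Parameters from noncompartmental analysis.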

Row | SMILES | EC50 [1] [µM] | Cmax [2] [µg/mL] | clearance [2] [L/h/kg] | Vd [2] [L/kg] | Tmax [2] [min] | bioavailability [2] [%] | half-life [2] [min]
1 | CC(C)(C)/[N+]([O-])=C/c1ccc(S(N)(=O)=O)cc1 [Compound 20, N-(tert-Butyl)-C-[4-(sulfamoyl)phenyl]nitrone] | > 1000 | 0.796 | 0.77 | 4.08 | 22.2 | 55.4 | 220
2 | CC(C)(C)/[N+]([O-])=C/c1ccc(S(=O)(=O)N2CCOCC2)cc1 [Compound 23, N-(tert-Butyl)-C-[4-(morpholine-4-sulfonyl)phenyl]nitrone] | > 1000 | 1.12 | 1.68 | 3.78 | 25.2 | 65.3 | 94.8
3 | CC(C)(C)/[N+]([O-])=C/c1ccc(S(=O)(=O)Nc2cccnc2)cc1 [Compound 26, N-(tert-Butyl)-C-[4-(pyridin-3-ylsulfamoyl)phenyl]nitrone] | > 1000 | 27.3 | 0.01 | 0.09 | 25.2 | 43.4 | 262
4 | CC(C)(C)/[N+]([O-])=C/c1ccc(S(C)(=O)=O)cc1 [Compound 62, N-tert-Butyl-C-[4-(methanesulfonyl)phenyl]nitrone] | > 1000 | 4.63 | 0.06 | 0.53 | 24.6 | 63.4 | 349
5 | CC(C)(C)/[N+]([O-])=C/c1ccccc1S(C)(=O)=O [Compound 66, N-tert-Butyl-C-(2-methanesulfonylphenyl)nitrone] | 500 to 1000 | 4.73 | 0.18 | 0.63 | 60 | 70.3 | 143

Continued, values first:

Row | EC50 [1] [µM] | Cmax [2] [µg/mL] | clearance [2] [L/h/kg] | Vd [2] [L/kg] | Tmax [2] [min] | bioavailability [2] [%] | half-life [2] [min] | SMILES
6 | 500 to 1000 | 4.13 | 0.19 | 0.45 | 45 | 95.9 | 99.6 | CC(C)(C)/[N+]([O-])=C/c1ccc(S(C)(=O)=O)cc1S(C)(=O)=O [Compound 63, N-tert-Butyl-C-(2,4-bis-methanesulfonylphenyl)nitrone]
7 | 500 to 1000 | 2.49 | 0.83 | 0.67 | 39.6 | 91.3 | 33 | CCS(=O)(=O)c1ccc(/C=[N+](\[O-])C(C)(C)C)c(S(=O)(=O)CC)c1 [Compound 64, N-tert-Butyl-C-(2,4-bis-ethanesulfonylphenyl)nitrone]
